The values that follow come from patent publication US10392381B2, “Prevention and treatment of non-alcoholic fatty liver disease” (Ohio University, priority 2014, dated 2019).

Assay [1] deals with C57BL/6J mice on an HFD with NAFLD (liver tissue). The experiment in a line: Treatment of NAFLD in C57BL/6J mice fed a HFD (Example 8, contemplated). Type of assay: in vivo. Particulars: C57BL/6J mice on HFD after NAFLD is observed; once daily ip 1, 3 or 10 mg/kg/day for up to 16 weeks (24 weeks if no effect). The method, then: Contemplated Experimental Protocol. C57BL/6J mice are placed on an HFD containing 60% fat (by % Kcal) (Diet #D12492, Research Diets, Inc.) for a period of weeks (as determined by the results of Example 6) until development of NAFLD is observed and clearly distinguishable from LFD-fed mice of the same age (between 4-8 weeks). At the time or after NAFLD is observed, once daily ip injections of COB-204, COB-214, COB-152, COB-187, DMSO, or sham are administered. Five mice are then euthanized weekly thereafter to characterize the effects of the COB-204, COB-214, COB-152, COB-187, DMSO, and/or sham on treatment of NAFLD for the period of up to 16 weeks post-initiation of the COB-204, COB-214, COB-152, COB-187, DMSO, and sham administration. The period of time for which treatment is administered will be extended to 24 weeks if no effect of the COB-204, COB-214, COB-152, or COB-187 administration on treatment of NAFLD is observed. The following Table further illustrates the experimental design:
If no effect of the COB-204, COB-214, COB-152, or COB-187 administration on treatment of NAFLD is observed by 16 weeks post-initiation of the COB-204, COB-214, COB-152, COB-187, DMSO, and sham administration, a subsequent study is performed wherein the period of time is extended to 24 weeks of the COB-204, COB-214, COB-152, and COB-187 administration, with 5 mice euthanized weekly from weeks 17-24 as previously described. The following Table further illustrates the experimental design:
NAFLD is evaluated in the liver of the HFD mice macroscopically, microscopically, and molecularly. More specifically, following euthanasia, the liver of each mouse is removed, weighed, and photographs taken thereof for macroscopic and/or gross observation of NAFLD. Then, the liver of each mouse is split in half, wherein one half is used for microscopic analysis of NAFLD and the remaining half is used for molecular analysis of NAFLD (i.e., quantification of triglycerides). Quantification of triglycerides is performed in accordance with the general protocol described in Example 6.

In the next assay the test system is Patients having NAFLD. The experiment in a line: Therapeutic use to treat NAFLD in patients (Example 11, contemplated). It counts as in vivo, human. Particulars: once daily oral dose of 3 mg/kg. How it is done: Contemplated Experimental Protocol. Patients having NAFLD are prescribed COB-204, COB-214, COB-152, or COB-187 to reduce the fat content in their liver. After determination of a baseline level of fat content in each of the patients' livers, each patient takes a once daily oral dose of 3 mg/kg of body weight of the COB-204, COB-214, COB-152, or COB-187, during which fat content in each patient's liver tissue is determined via liver function testing, liver ultrasound, and liver biopsy.

Assay [2] has as its system Patients at risk for developing NAFLD. The experiment in a line: Therapeutic use to prevent development of NAFLD in patients at risk (Example 10, contemplated). It counts as in vivo, human. Particulars: once daily oral dose of 1 mg/kg, chronically. The method, then:
Contemplated Experimental Protocol. Patients at risk for developing NAFLD are prescribed COB-204, COB-214, COB-152, or COB-187 to prevent excess accumulation of fat. Each patient takes a once daily oral dose of 1 mg/kg of body weight of the COB-204, COB-214, COB-152, or COB-187, chronically, during which fat content in the liver is determined via liver function testing, liver ultrasound, and liver biopsy.

The subject of assay [3] is C57BL/6J mice on a HFD (liver tissue). The experiment in a line: Prevention of NAFLD in C57BL/6J mice fed a HFD (Example 7): macroscopic observation, hematoxylin and eosin histology, liver triglyceride quantification. It counts as in vivo. Particulars: C57BL/6J mice on HFD; for mean triglyceride concentration (mg/g liver) in liver tissue compared with HFD or HFD + DMSO mice / Percentage of Triglyceride Values (mg/g liver) Below the Mean of the HFD + Sham Group / macroscopic observation of fatty liver disease compared with sham or DMSO injection: 1 mg/kg intraperitoneal once daily for 6 weeks; for mean triglyceride concentration (mg/g liver) in liver tissue compared with HFD or HFD + DMSO mice: comparison of means in FIG. 3; for Percentage of Triglyceride Values (mg/g liver) Below the Mean of the HFD + Sham Group: middle, right and left liver lobes (FIG. 3), 1 mg/kg; for macroscopic observation of fatty liver disease compared with sham or DMSO injection: removed liver tissue; for histological examination of hepatic fat accumulation compared with sham or DMSO injection: 1 mg/kg intraperitoneal once daily, middle lobe of liver, hematoxylin and eosin (FIG. 4). The method, then:
Quantification of triglycerides of the middle, right, and left lobes was performed to ensure that accumulation (or lack thereof) of triglycerides was similar in each lobe of the liver and to ensure that a representative analysis of triglyceride accumulation in the liver as a whole was assessed. The caudate lobe was excluded since the caudate lobe is very small compared to the middle, right, and left lobes. Triglycerides were quantified in accordance with the following general protocol, based upon the Salmon and Flatt Method of Liver Saponification. 50-100 mg of liver tissue was placed into an Eppendorf tube and weighed. Equal volume per weight of 3 M KOH (in 65% EtOH) was added to the tube and vortexed. The tube was placed at 70° C. for 1 hr to activate digestion. The tubes were vortexed every 15 minutes. The tube was set at room temperature overnight to allow for complete digestion, and was vortexed periodically. The sample was diluted to a final concentration of 100 mg of liver tissue per 600 μl fluid; the sample was diluted by adding 2 M Tris-HCl (un-pHed) to a final concentration of 50 mM. Where a second dilution was required, the sample was diluted using 50 mM Tris-HCl (pH 7.5). Triglycerides-GPO (0.5 mL, liquid; Pointe Scientific Cat. No. T7532-500; Fisher Scientific, Pittsburgh, Pa.) were aliquoted into Eppendorf tubes and warmed in a 37° C. water bath for 5-10 minutes. Glycerol standards (0, 1, 2.5, 5, 7.5 and 10 mmol/L) were made by diluting 10 mmol/L stock of glycerol, such as, e.g., with 50 mM Tris-HCl. 5 μL of the sample and glycerol standards (0, 1, 2.5, 5, 7.5 and 10 mmol/L) were added to 0.5 mL of the triglycerides-GPO, mixed, and incubated at room temperature for 5 minutes. The mixture was then vortexed and added (200 μL) to each well of a 96-well flat-bottom ELISA plate (in triplicate). Absorbance (i.e., optical density) was read at 500 nm. The concentrations of the samples were determined via use of a plot of glycerol standards concentration (mmol/L) with respect to optical density (i.e., O.D.) at 500 nm. The concentration of glycerol (mg glycerol/g tissue) was then calculated and triglyceride concentration was determined, in accordance with calculations known to those of ordinary skill in the art.
Experimental Protocol. 7 week old male C57BL/6J mice (i.e., a mouse model of obesity-induced insulin resistance and Type 2 Diabetes Mellitus) were placed on a HFD (i.e., having a fat content of 60%, a protein content of 20%, and a carbohydrate content of […], N=50). The C57BL/6J mice on the HFD were divided into five groups, wherein one such group was immediately given an intraperitoneal sham injection (i.e., Group 1, serving as a stress control N=10), another group was immediately given an intraperiteonal injection of dimethyl sulfoxide (hereinafter, “DMSO”, i.e., Group 2, serving as a vehicle control, N=10), another group was immediately given an intraperitoneal injection of 1 mg/kg COB-204 (i.e., Group 3, N=10), another group was immediately given an intraperitoneal injection of 1 mg/kg COB-214 (i.e., Group 4, N=10), and another group was immediately given an intraperitoneal injection of 1 mg/kg COB-187 (i.e., Group 5, N=10). Such injections were initiated with the HFD and were given to the C57BL/6J mice on the HFD once daily for a period of 6 weeks. Food intake and total body weight of the C57BL/6J mice were measured weekly.
At 0 weeks, some of the C57BL/6J mice from each of Groups 1-5 were euthanized (N=5). Liver tissue of the C57BL/6J mice euthanized at 0 weeks was harvested and divided into lobes, including the middle lobe, the right lobe, and the left lobe, for morphological (i.e., hematoxylin and eosin staining) and molecular analysis (i.e., quanitification of triglycerides). The caudate lobe was excluded from such division as the caudate lobe is very small compared to the middle, right, and left lobes. […]

The structures appear in SMILES notation.

As for `OC1(c2ccccc2)CSC(=S)N1Cc1ccncc1` (stereo not drawn) [COB-187], in assay [1], the “fat content in the liver tissue of the mice” value (shortened to “fat content … of the mice”) is “reduced relative to a baseline level”. Besides, the “fat content in the patient's liver” value in the assay on Patients having NAFLD is reported as “reduced relative to the baseline level”. Further, in assay [2], the “excess accumulation of fat in the liver of patients” value (“excess accumulation of fat” below) is on record as “no excess accumulation of fat”. In assay [3], the “mean triglyceride concentration (mg/g liver) in liver tissue compared with HFD or HFD + DMSO mice” value is recorded as “lower mean triglyceride concentration”, the “Percentage of Triglyceride Values (mg/g liver) Below the Mean of the HFD + Sham Group” value (from here on “Percentage of Triglyceride Values”) was 79%, the “macroscopic observation of fatty liver disease compared with sham or DMSO injection” value was “much less fatty liver disease” and the “histological examination of hepatic fat accumulation compared with sham or DMSO injection” value is on record as “much less hepatic fat accumulation”.
In the case of `OC1(c2ccccc2)CSC(=S)N1Cc1cccnc1` (stereo not drawn) [COB-152], the “fat content … of the mice” value in assay [1] is listed as “reduced relative to a baseline level”. In addition, in the assay with Patients having NAFLD, the “fat content in the patient's liver” value was “reduced relative to the baseline level”. For the same molecule, the “excess accumulation of fat” value in assay [2] is “no excess accumulation of fat”.
Regarding `COc1ccc(-c2csc(=S)n2Cc2cccnc2)c(OC)c1` [COB-204], the “fat content … of the mice” value in assay [1] is reported as “reduced relative to a baseline level”. For the same molecule, the “fat content in the patient's liver” value in the assay on Patients having NAFLD is given as “reduced relative to the baseline level”. Also, the “excess accumulation of fat” value in assay [2] was “no excess accumulation of fat”. In addition, in assay [3], the “mean triglyceride concentration (mg/g liver) in liver tissue compared with HFD or HFD + DMSO mice” value is “no effect”, the “Percentage of Triglyceride Values” value worked out at 60%, the “macroscopic observation of fatty liver disease compared with sham or DMSO injection” value was “much less fatty liver disease” and the “histological examination of hepatic fat accumulation compared with sham or DMSO injection” value is reported as “much less hepatic fat accumulation”.
Turning to `CCCn1c(-c2cccnc2)csc1=S` [COB-214], the “fat content … of the mice” value in assay [1] was “reduced relative to a baseline level”. Moreover, the “fat content in the patient's liver” value with Patients having NAFLD is “reduced relative to the baseline level”. Moreover, the “excess accumulation of fat” value in assay [2] is reported as “no excess accumulation of fat”. In assay [3], the “mean triglyceride concentration (mg/g liver) in liver tissue compared with HFD or HFD + DMSO mice” value is “lower mean triglyceride concentration”, the “Percentage of Triglyceride Values” value was 87%, the “macroscopic observation of fatty liver disease compared with sham or DMSO injection” value was “much less fatty liver disease” and the “histological examination of hepatic fat accumulation compared with sham or DMSO injection” value is listed as “much less hepatic fat accumulation”.
